Here are results for 80 compounds from article PMC12040169 (PLOS Biology, 2025).

The nature of this data set: in vitro. The note with it: human, hela cells, % viability.

Consider `O=C(Nc1ccc(O)c(-c2nc3ccccc3o2)c1)c1ccc(-c2ccc([N+](=O)[O-])cc2)o1` [CBK263439], for which the viability (as a rule, a read-out of living cells in per cent, often relative to untreated cells) at 28.5 h, 10 µM was determined as 96.4%.

As to `Cn1c(=O)[nH]c(=O)c2c1nc(CN1CCOCC1)n2CCc1ccccc1` [CBK269910], the viability at 28.5 h, 10 µM stood at 88%.

Turning to `Fc1ccc(Oc2nccnc2N2CCN(Cc3ccc(Cl)cc3)CC2)cc1` [CBK083010T], the viability at 28.5 h, 10 µM came to 80.4%.

As for `COc1ccc2c(ccn2CC(=O)NC[C@H]2CC[C@H](C(=O)O)CC2)c1` [CBK286687], the viability at 28.5 h, 10 µM was found to be 110%.

In the case of `CCOC(=O)c1sc(NS(=O)(=O)Cc2ccccc2)nc1C` [CBK047448], the viability at 28.5 h, 10 µM was 105%.

Regarding `CC(=O)Nc1ccc(NC2SC(=O)N(c3ccccc3)C2=O)cc1` (centres unmarked) [CBK085110], the viability at 28.5 h, 10 µM amounted to 88.4%.

Regarding `CC(=O)Nc1ccc(-c2ccc(COC3CCN(C(=O)Cc4ccc(Cl)cc4)CC3)cc2)cc1` [CBK149218], the viability at 28.5 h, 10 µM was determined as 94.6%.

In the case of `O=C(O)c1ccc(/C=N\NC(=O)C2COc3cc4ccccc4cc3O2)cc1` (centres unmarked) [CBK262792], the viability at 28.5 h, 10 µM was found to be 90.4%.

As for `Cn1c(=O)c2c(nc(CN3CCC(Cc4ccccc4)CC3)n2CCN2CCOCC2)n(C)c1=O` [CBK269380], the viability at 28.5 h, 10 µM amounted to 100%.

For `CCNc1nc(-c2cc(Cl)cc(Cl)c2)cn2ccnc12` [CBK066483], the viability at 28.5 h, 10 µM amounted to 89.6%.

For `Cc1nn(C)c(C)c1-c1ccc(=O)n(Cc2ccc(F)cc2)n1` [CBK282258], the viability at 28.5 h, 10 µM came to 95.3%.

In the case of `CCOc1ccc(NC(NC(=O)Nc2ccccc2)C(Cl)(Cl)Cl)cc1` (centres unmarked) [CBK261294], the viability at 28.5 h, 10 µM stood at 99.8%.

With `CC(C)(C)/N=C1/SCC(C)(/C=N\O)S1` (centres unmarked) [CBK009726], the viability at 28.5 h, 10 µM is 98.7%.

In the case of `Cc1ccc(C(=O)Nc2noc3ccccc23)cc1` [CBK288124], the viability at 28.5 h, 10 µM came to 88.9%.

For `COCCNc1nc(-c2ccc3c(c2)OCO3)ccc1C(=O)N(C)CCN(C)C` [CBK105915], the viability at 28.5 h, 10 µM worked out at 103%.

Turning to `O=C(Nc1cccnc1)N1CCN(c2ccccc2)CC1` [CBK145043], the viability at 28.5 h, 10 µM came out at 89.5%.

As to `CC(Nc1cccc2ccccc12)C(=O)N/N=C/c1c(O)ccc2ccccc12` (centres unmarked) [CBK262678], the viability at 28.5 h, 10 µM was determined as 97.5%.

`COc1cc(C)c(C)cc1S(=O)(=O)N1[C@@H](c2ccccc2F)C[C@@H]2NC(=O)CCC[C@H]21` [CBK286012]: the viability at 28.5 h, 10 µM turned out to be 112%.

With `CC(C)c1nc2c(n1C)CCN(Cc1cc(=O)n3ccccc3n1)C2` [CBK305061], the viability at 28.5 h, 10 µM was 92.6%.

As to `COC(=O)c1c(NC(=S)Nc2ccc(Br)cn2)sc2c1CCC(C)C2` (centres unmarked) [CBK266962], the viability at 28.5 h, 10 µM amounted to 94.6%.

For the compound `Cc1ccccc1NC(=O)NCc1ccccc1` [CBK105833], the viability at 28.5 h, 10 µM stood at 86.8%.

`O=c1c(I)coc2ccc(Cl)cc12` [CBK005364]: the viability at 28.5 h, 10 µM is 93.9%.

Consider `O=C(CSc1ccc(Cl)cc1)Nc1ccc(S(=O)(=O)N2CCOCC2)cc1` [CBK262723], for which the viability at 28.5 h, 10 µM was found to be 95%.

Consider `O=C(O)c1ccc(CN2C(=O)COc3ccccc32)o1` [CBK270276], for which the viability at 28.5 h, 10 µM was 104%.

On to `CCCCc1ccc(S(=O)(=O)n2ccc3c(N4CCNCC4)nccc32)cc1` [CBK045805C], for which the viability at 28.5 h, 10 µM worked out at 100%.

For the compound `CC(C)Nc1nc(NC(C)C)nc(Oc2ccc(C=O)cc2)n1` [CBK265043], the viability at 28.5 h, 10 µM was 111%.

For the compound `Cn1cc(CN[C@@H]2CCC(=O)N[C@H]2c2cc(F)cc(F)c2)cn1` [CBK282913], the viability at 28.5 h, 10 µM is 100%.

Take `COc1cccc(C(c2ccccn2)N(C)C(=O)C2CCN(S(=O)(=O)c3c(C)noc3C)CC2)c1` (centres unmarked) [CBK060212]: the viability at 28.5 h, 10 µM was 96.4%.

Take `O=C(c1cscn1)N1CCN(c2ncccn2)CC1` [CBK144506]: the viability at 28.5 h, 10 µM stood at 87.9%.

With `O=C(C1CC1)N1CCC(c2nnc(-c3ccsc3)o2)CC1` [CBK283376], the viability at 28.5 h, 10 µM is 91.6%.

Take `O=C(OCc1ccccc1)Sc1nnc(-c2ccc([N+](=O)[O-])cc2)o1` [CBK264504]: the viability at 28.5 h, 10 µM is 91.3%.

For `Cc1ccc(S(=O)(=O)Nc2nnc(C(C)C)s2)cc1` [CBK045528], the viability at 28.5 h, 10 µM amounted to 108%.

Regarding `Cc1nc2sccn2c1CN(CCCN(C)C)Cc1ccco1` [CBK283199], the viability at 28.5 h, 10 µM is 92.5%.

Take `Cc1noc(-c2ccccc2)c1CN1CCCN(S(=O)(=O)c2ccc(C(F)(F)F)cc2Cl)CC1` [CBK063104]: the viability at 28.5 h, 10 µM is 103%.

Turning to `CC1(C(C)(O)C(F)F)OC(NC2C3CC4CC(C3)CC2C4)=NC1=O` (centres unmarked) [CBK137190], the viability at 28.5 h, 10 µM was 103%.

In the case of `Cc1cc(=O)oc2cc(OC(C)C(=O)Nc3sc4c(c3C(N)=O)CCCC4)ccc12` (centres unmarked) [CBK268050], the viability at 28.5 h, 10 µM is 94.6%.

Consider `O=C(O)c1ccc2c(c1)c(C(C(=O)O)N1CCCC1)cn2Cc1ccccc1` (centres unmarked) [CBK286633], for which the viability at 28.5 h, 10 µM was found to be 90.1%.

As for `O=C(C[C@@H]1O[C@H](CNCc2cccc(Cl)c2)[C@@H](O)[C@H]1O)N1CCOCC1` [CBK288905], the viability at 28.5 h, 10 µM was determined as 77.3%.

On to `COc1ccc(CN2CCOCC2CC(=O)O)cc1Cn1cncn1` (centres unmarked) [CBK307220], for which the viability at 28.5 h, 10 µM was 92.7%.

For `CC(C)NCC(O)COC1CCC(C(C)(C)C)CC1` (centres unmarked) [CBK029007C], the viability at 28.5 h, 10 µM worked out at 89.2%.

Turning to `OC(CN1CCC(Oc2cccc(F)c2)CC1)c1cccs1` (centres unmarked) [CBK281453], the viability at 28.5 h, 10 µM stood at 88.8%.

Turning to `Cc1nn(C(C)C)c(C)c1CN1CCN(C2CCCCC2)C(=O)C1` [CBK282562], the viability at 28.5 h, 10 µM was found to be 109%.

As for `N#Cc1c[nH]c(C(=O)NC2CCN(C(=O)c3ccccc3)CC2)c1` [CBK306433], the viability at 28.5 h, 10 µM is 91%.

For `COc1ccc(NC(=S)NCCCN(C)C)cc1` [CBK264292], the viability at 28.5 h, 10 µM is 96.2%.

`O=C(Cc1ccccc1[N+](=O)[O-])NNC(=S)Nc1ccc(F)c(Cl)c1` [CBK266904]: the viability at 28.5 h, 10 µM stood at 101%.

Take `CN(C)Cc1cc(-c2ccccc2F)nn1CCNC(=O)C1CCC1` [CBK283471]: the viability at 28.5 h, 10 µM worked out at 93.1%.

For the compound `c1ccc(CSc2nnc3ccc(-c4ccncc4)nn23)cc1` [CBK287681], the viability at 28.5 h, 10 µM stood at 86.5%.

On to `CCC(=O)N[C@H]1CC[C@]2(CC1)CNC(=O)c1ccccc1O2` [CBK281681], for which the viability at 28.5 h, 10 µM stood at 106%.

With `CC(C)c1ccc(NC(=O)O[C@@H]2CO[C@H]3[C@@H]2OC[C@@H]3NC(=O)c2cncnc2)cc1` [CBK289480], the viability at 28.5 h, 10 µM is 105%.

With `Cc1ncn(Cc2nc(-c3ccsc3)no2)c(=O)c1C` [CBK304158], the viability at 28.5 h, 10 µM is 113%.

In the case of `O=C(O)c1ccc(S(=O)(=O)c2ccc3c(c2)C(=O)N(NC(=O)c2ccc(O)cc2)C3=O)cc1` [CBK264229], the viability at 28.5 h, 10 µM was 102%.

`CC(C)c1ccc(S(=O)(=O)NC(CC(=O)O)c2ccccc2)cc1` (centres unmarked) [CBK266217]: the viability at 28.5 h, 10 µM came out at 102%.

Regarding `CC(=O)c1cccc(NC(=O)Cn2nc(C)ccc2=O)c1` [CBK304653], the viability at 28.5 h, 10 µM was found to be 101%.

On to `O=[N+]([O-])c1ccc(CSc2nnc(-c3cnccn3)n2Cc2ccco2)cc1` [CBK267585], for which the viability at 28.5 h, 10 µM is 100%.

In the case of `CCN(CC)CCC(C(=O)c1ccccc1)S(C)(=O)=O` (centres unmarked) [CBK022802], the viability at 28.5 h, 10 µM was 88.8%.

As to `O=C(O)c1cc(S(=O)(=O)Nc2ccc(F)cc2)c(Cl)cc1Cl` [CBK113685], the viability at 28.5 h, 10 µM turned out to be 84.9%.

Turning to `Clc1ccc(OCCOc2nccnc2N2CCNCC2)cn1` [CBK014049G], the viability at 28.5 h, 10 µM stood at 92.5%.

For `Cc1ncccc1COC(=O)N1c2ccccc2CCC1C` (centres unmarked) [CBK200204], the viability at 28.5 h, 10 µM stood at 101%.

Turning to `CCn1nc(C)c(CN(C)C(=O)C2CC=CCC2C(=O)O)c1C` (centres unmarked) [CBK286884], the viability at 28.5 h, 10 µM came out at 86.1%.

`COc1ccc([C@@]23CCC(NC(=O)Nc4ccc5c(c4)Cc4ccccc4-5)C[C@@H]2N(C)CC3)cc1OC` (some centres unmarked) [CBK047550T]: the viability at 28.5 h, 10 µM was determined as 85.9%.

For the compound `Cc1cc(Cl)cc(Br)c1OCCNCCN1CCOCC1` [CBK268615G], the viability at 28.5 h, 10 µM amounted to 111%.

For the compound `O=C(O)c1ccc(CSc2nnc(-c3ccncc3)n2-c2ccc(Br)cc2)cc1` [CBK267559], the viability at 28.5 h, 10 µM is 84.9%.

Turning to `Cc1cc(OC(C)C(=O)Nc2ccc(S(=O)(=O)Nc3onc(C)c3C)cc2)cc(C)c1Cl` (centres unmarked) [CBK267887], the viability at 28.5 h, 10 µM stood at 98.7%.

On to `CCOc1ccsc1C(=O)Nc1ccccc1N1CCCNCC1` [CBK036354T], for which the viability at 28.5 h, 10 µM is 95.7%.

Consider `O=C(Nc1cccnc1)N1CCN(Cc2ccccc2)CC1` [CBK155663], for which the viability at 28.5 h, 10 µM was 87.7%.

`CCN(CC)C(=O)Cn1nc(C)n2c(cc3sc(C)cc32)c1=O` [CBK284064]: the viability at 28.5 h, 10 µM is 96.1%.

For `O=C1CC[C@H](NC(=O)c2cccs2)C(c2cccnc2)N1` (some centres unmarked) [CBK282901], the viability at 28.5 h, 10 µM came out at 98.5%.

Regarding `Cn1c(=O)[nH]c(=O)c2c1nc(N1CCN(Cc3ccccc3)CC1)n2CCCc1ccccc1` [CBK269529], the viability at 28.5 h, 10 µM is 104%.

Regarding `COc1ccc(NCc2cc3sccc3n2C)cc1OC` [CBK283486], the viability at 28.5 h, 10 µM amounted to 87%.

Consider `Oc1ccc2[nH]c3c(c2c1)CCNC31CCN(CCOc2ccccc2)C1` (centres unmarked) [CBK081496], for which the viability at 28.5 h, 10 µM worked out at 85.9%.

With `O=C(NC1CC1)c1cnc2ccc(F)cc2c1O` [CBK307629], the viability at 28.5 h, 10 µM stood at 82.4%.

Consider `CCN(CC)C(=O)C1CCCN(C(=O)NC2CCc3ccccc32)C1` (centres unmarked) [CBK156156], for which the viability at 28.5 h, 10 µM is 92.2%.

In the case of `CC(C)c1ccc(OCCc2cc(C3CCN(C(=O)CC4CCCC4)C3)n[nH]2)cc1` (centres unmarked) [CBK286129], the viability at 28.5 h, 10 µM was 102%.

Consider `c1cc(COc2ccc(N3CCNCC3)nn2)co1` [CBK022562], for which the viability at 28.5 h, 10 µM turned out to be 95.7%.

For `CCOc1ccc(-c2ccnc(NCC3CCCOC3)n2)cc1C(=O)O` (centres unmarked) [CBK307694], the viability at 28.5 h, 10 µM was found to be 88.2%.

For `CCC(=O)N1CCC(c2cc(-c3cccc(F)c3)n(C)n2)CC1` [CBK282096], the viability at 28.5 h, 10 µM was found to be 107%.

Consider `O=C(O)C1CCCN(C(=O)NCc2ccc(F)cc2)C1` (centres unmarked) [CBK161364], for which the viability at 28.5 h, 10 µM was found to be 95.7%.

For `CN(CCOc1ccccc1)c1nccnc1N1CCNCC1` [CBK000035F], the viability at 28.5 h, 10 µM is 109%.

For the compound `N#CCCCN1CCC(Oc2nccnc2OCCN2C(=O)CCC2=O)CC1` [CBK084349], the viability at 28.5 h, 10 µM turned out to be 99.4%.

As for `Cc1noc(C)c1NC(=O)c1ccc2ncccc2c1` [CBK200308], the viability at 28.5 h, 10 µM turned out to be 104%.
